Laboratory results reported in PubChem BioAssay (NCI).
“And” between values parts separate entries of the source, which are not always exact repeats. Equal entries are not always repeated.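 How tested: cells in 96-well plates exposed to compound for 48 hours at five concentrations. GI50: concentration for 50% inhibition of growth. TGI: total growth inhibition.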

Key:
Test in all cases: NCI tumour cell line growth inhibition, 48 h
[1] = tested on: EKVX NSCLC
[2] = tested on: HOP-92 NSCLC
[3] = tested on: SK-OV-3 ovarian
[4] = tested on: UO-31 renal
[5] = tested on: HOP-62 NSCLC
[6] = tested on: SK-MEL-2 melanoma
[7] = tested on: HCT-15 colon
[8] = tested on: SK-MEL-28 melanoma
[9] = tested on: ACHN renal
[10] = tested on: UACC-62 melanoma
[11] = tested on: SNB-19 CNS
[12] = tested on: SR leukemia
[13] = tested on: MDA-N
[14] = tested on: P388/ADR leukemia
[15] = tested on: A549 NSCLC
[16] = tested on: BT-549 breast
[17] = tested on: MDA-MB-435
[18] = tested on: MDA-MB-231 breast
[19] = tested on: SF-539 CNS
[20] = tested on: SK-MEL-5 melanoma
[21] = tested on: M14 melanoma
[22] = tested on: P388 leukemia
[23] = tested on: A498 renal
[24] = tested on: HT29 colon
[25] = tested on: DU-145 prostate
[26] = tested on: HS 578T breast
[27] = tested on: DMS 114 small cell lung
[28] = tested on: RPMI-8226 leukemia
[29] = tested on: SNB-75 CNS
[30] = tested on: NCI-H460 lung
[31] = tested on: NCI-H522 lung
[32] = tested on: DLD-1 colon
[33] = tested on: XF 498 CNS
[34] = tested on: MOLT-4 leukemia
[35] = tested on: LXFL 529 NSCLC
[36] = tested on: SW-620 colon
[37] = tested on: NCI-H226 lung
[38] = tested on: MCF7 breast
[39] = tested on: NCI/ADR-RES ovarian
[40] = tested on: UACC-257 melanoma
[41] = tested on: SN12K1 renal
[42] = tested on: 786-0 renal

Compound: COC(C(=O)C(O)C(C)O)C1Cc2cc3cc(OC4CC(OC(C)=O)C(OC5CC(O)C(OC)C(C)O5)C(C)O4)cc(O)c3c(O)c2C(=O)C1OC1CC(OC2CC(OC3CC(C)(O)C(OC(=O)C(C)C)C(C)O3)C(O)C(C)O2)C(O)C(C)O1 (centres undefined)
- GI50 [1]: 0.0723 µM
- GI50 [2]: 0.0383 µM and 0.00429 µM
- TGI [2]: 0.288 µM and 0.039 µM
- GI50 [3]: 0.0217 µM and 0.0423 µM
- GI50 [4]: 0.399 µM and 0.46 µM
- TGI [4]: 4.1 µM and 5.22 µM
- GI50 [5]: 0.0795 µM and 0.0102 µM and 0.00856 µM
- GI50 [6]: 0.0189 µM
- TGI [6]: 0.042 µM and 0.0104 µM
- GI50 [7]: 0.455 µM
- TGI [7]: 22.4 µM and 34.5 µM
- GI50 [8]: 0.000911 µM and 0.00146 µM
- TGI [9]: 0.198 µM
- GI50 [10]: 0.00129 µM
- GI50 [11]: 0.0897 µM and 0.01 µM
- TGI [11]: 53.9 µM and > 100 µM
- TGI [12]: 0.385 µM
- TGI [13]: 0.252 µM
- TGI [14]: 75 µM and > 100 µM
- GI50 [15]: 0.0328 µM and 0.00452 µM
- TGI [15]: 12.3 µM and 11.1 µM
- TGI [16]: 0.0444 µM
- TGI [17]: 0.21 µM
- TGI [18]: 0.551 µM
- GI50 [19]: 0.000553 µM
- GI50 [20]: 0.0094 µM and 0.00174 µM
- TGI [21]: 0.257 µM and 0.0292 µM
- TGI [22]: 0.237 µM and 0.0293 µM
- GI50 [23]: 0.154 µM and 0.0248 µM
- TGI [24]: 0.991 µM and 3.48 µM and 2.1 µM
- TGI [25]: 0.569 µM
- TGI [26]: 0.175 µM
- TGI [27]: 0.084 µM and 0.017 µM and 0.0165 µM
- TGI [28]: 0.202 µM and 0.14 µM
- GI50 [29]: 0.00157 µM
- TGI [29]: 0.0626 µM and 0.0109 µM and 0.0075 µM
- GI50 [30]: 0.0261 µM and 0.0113 µM and 0.00305 µM
- GI50 [31]: 0.000196 µM
- GI50 [32]: 0.298 µM and 0.0325 µM
- TGI [32]: 8.61 µM and > 27.3 µM
- GI50 [33]: 0.00637 µM and 0.00134 µM
- TGI [34]: 0.306 µM and 0.147 µM
- GI50 [35]: 0.0174 µM
- TGI [35]: 0.124 µM
- TGI [36]: 3.98 µM and 2.22 µM
- TGI [37]: 0.148 µM and 0.0893 µM
- GI50 [38]: 0.0465 µM
- TGI [38]: 0.327 µM and < 0.215 µM
- TGI [39]: 63.7 µM and > 100 µM
- GI50 [40]: 0.00348 µM and < 0.0155 µM
- TGI [40]: 0.0977 µM and 0.0249 µM and < 0.0492 µM
- TGI [41]: 0.0126 µM
- GI50 [42]: 0.0763 µM and 0.0168 µM
- TGI [42]: 0.826 µM
